Measured values published in patent EP0819124B1, “AZOLE COMPOUNDS WITH ANTIMYCOTIC ACTIVITY FOR HUMAN AND VETERINARY USE” (ZAMBON GROUP S.p.A., priority 1995, dated 1996).
≈ marks a conversion by molar mass, not a printed value. Read-outs that look alike come from different tables or passages of the source.

Legend:
[1] = system: Candida albicans 1040; assay: In vivo antimycotic activity in mice experimentally infected by C. albicans, oral route; set-up: species or system Charles River white mice (CD1 strain); conditions: for PD50 at 8th day / PD50 at 14th day: oral route, probits analysis; for PD50 at 8th day: 8 days from the infection; for PD50 at 14th day: 14 days from the infection; for % percentage of survival after day 3 / % percentage of survival after day 6: mice infected by C. albicans, dose 25 mg/kg/os
Procedure: Charles River white mice (CD1 strain) weighing from 23 to 25 g, normo-feeded with standard diet and water ad libitum were used.
A suspension (0.2 ml containing 2.5x10^7 cells/ml) of Candida albicans 1040 in physiologic solution was injected to each animal by venous route. Immediately after the infection and after 4, 24 and 48 hours, the animals received by oral route (in arabic gum at 2%) doses increasing in a geometrical progression of the compound to be tested. The infected group was used as control.
The observation of the mortality of the mice was prolonged up to 14 days. From the number of survived animals for each concentration the average protective dose (DP50) was calculated by probits analysis (L.Lison - "Statistica applicata alla biologia sperimentale. La programmazione dell'esperimento e l'analisi dei risultati" - Casa Editrice Ambrosiana, 1961).
Compounds R1 and R2 were used as comparative compounds.
Fluconazole and Itraconazole were used as reference compounds.

[2] = system: C. albicans 1040; assay: In vitro antimycotic activity, macromethod of scalar broth dilutions (YNB); assay type: cell-based, Candida albicans
Procedure: (§1) The determination of the activity inhibiting the growth of mycetes was evaluated by the macromethod of scalar brothdilutions in geometrical progression (M.R. McGinnis and M.G. Rinaldi, "Antifungal drugs: mechanisms of action, drug resistance, susceptibility testing and assay of activity in biological fluids", in Antibiotic in Laboratory Medicine, Ed. V. Lorian, Baltimora 1991).
(§2) As culture media Yeast Nitrogen Base broth (YNB) and Sabouraud Dextrose broth (SDB) were used for yeasts and moulds, respectively.
(§3) The results obtained in SDB (after incubation at 28°C for 7 days) were expressed as minimum inhibiting concentrations (MIC) the growth of mycetes, while those obtained in YNB (after incubation at 35°C for 48 hours) were expressed as concentrations able to inhibit at 50% (IC50) the growth of the yeast.
(§4) As reference compounds Fluconazole, Itraconazole and Genaconazole were used.

[3] = system: C. neoformans; assay: as above; assay type: cell-based; conditions: Cryptococcus neoformans
Procedure: as §1, §2, §3, §4

[4] = system: T.mentagrophytes; assay: In vitro antimycotic activity, macromethod of scalar broth dilutions (SDB); assay type: cell-based, Trychophyton mentagrophytes; conditions: Trichophyton mentagrophytes, 168 h
Procedure: as §1, §2, §3, §4

[5] = system: A. fumigatus; assay: as above; assay type: cell-based; conditions: Aspergillus fumigatus, 168 h
Procedure: as §1, §2, §3, §4

[6] = system: C. tropicalis (2); assay: In vitro antimycotic activity, strain panel (Table 2); assay type: cell-based; conditions: Candida tropicalis
Procedure: as §1, §2, §3, §4
(§5) Note to the table: MIC expressed as µg/ml Within brackets the number of tested strains Table 3

[7] = system: C. albicans (7); assay: as above; assay type: cell-based; conditions: Candida albicans
Procedure: as §1, §2, §3, §4, §5

[8] = system: C. spp * (5) (C. parapsilosis, lusitaniae, kefyr); assay: as above; assay type: cell-based; conditions: Lodderomyces parapsilosis
Procedure: as §1, §2, §3, §4, §5

[9] = system: Trichosporon sp. (1); assay: as above; assay type: cell-based
Procedure: as §1, §2, §3, §4, §5

[10] = system: C. neoformans (4); assay: as above; assay type: cell-based; conditions: Cryptococcus neoformans
Procedure: as §1, §2, §3, §4, §5

[11] = system: B. capitatus (1); assay: as above; assay type: cell-based; conditions: Magnusiomyces capitatus
Procedure: as §1, §2, §3, §4, §5

[12] = system: Fusarium sp; assay: In vitro antimycotic activity against recently isolated Fusarium strains (Tables 2 and 3); assay type: cell-based; conditions: for In vitro antimycotic activity: quantity and unit not given in Table 3; for MIC: Fusarium
Procedure: as §1, §2, §3, §4, §5

[13] = system: C. krusei (2); assay: In vitro antimycotic activity, strain panel (Table 2); assay type: cell-based, Candida krusei; conditions: Pichia kudriavzevii
Procedure: as §1, §2, §3, §4, §5

[14] = system: A. niger; assay: In vitro antimycotic activity against recently isolated Aspergillus niger (Table 3); assay type: cell-based; conditions: A. niger strain 94-6222; quantity and unit not given in Table 3
Procedure: as §1, §2, §3, §4

[15] = system: C. glabrata (2); assay: In vitro antimycotic activity, strain panel (Table 2); assay type: cell-based, Candida glabrata; conditions: Nakaseomyces glabratus
Procedure: as §1, §2, §3, §4, §5

[16] = Candida albicans, C. albicans 1040, YNB, incubation at 35°C for 48 hours, read-out: IC50
[17] = C. neoformans, YNB, incubation at 35°C for 48 hours, read-out: IC50
[18] = T.mentagrophytes, SDB, incubation at 28°C for 7 days, read-out: MIC
[19] = C. tropicalis, 2 strains, single value or range printed under head MIC50 MIC90, read-out: MIC
[20] = C. albicans, 7 strains, read-out: MIC50
[21] = C. albicans, 7 strains, read-out: MIC90
[22] = C. parapsilosis, lusitaniae, kefyr, 5 strains, read-out: MIC50
[23] = C. parapsilosis, lusitaniae, kefyr, 5 strains, read-out: MIC90
[24] = Trichosporon sp., 1 strain, single value under head MIC50 MIC90, read-out: MIC
[25] = C. neoformans, 4 strains, read-out: MIC50
[26] = C. neoformans, 4 strains, read-out: MIC90
[27] = B. capitatus, 1 strain, single value under head MIC50 MIC90, read-out: MIC
[28] = C. krusei, 2 strains, range printed under head MIC50 MIC90, read-out: MIC
[29] = C. glabrata, 2 strains, single value or range printed under head MIC50 MIC90, read-out: MIC
[30] = A. fumigatus, SDB, incubation at 28°C for 7 days, read-out: MIC

OC(Cn1cncn1)(Cn1cncn1)c1ccc(F)cc1F [Fluconazole, reference compound]
PD50 at 8th day [1]: 0.125 mg/kg/os
PD50 at 14th day [1]: 0.61 mg/kg/os
IC50 [2, 16]: 0.5 µg/mL (≈ 1.63 µM)
IC50 [3, 17]: 2 µg/mL (≈ 6.53 µM)
MIC [4, 18]: 16 µg/mL (≈ 52.2 µM)
MIC [5]: > 128 µg/mL
MIC [6, 19]: 4 to 16 µg/mL (≈ 13.1 to 52.2 µM)
MIC50 [7, 20]: 4 µg/mL (≈ 13.1 µM)
MIC90 [7, 21]: 32 µg/mL (≈ 104 µM)
MIC50 [8, 22]: 1 µg/mL (≈ 3.27 µM)
MIC90 [8, 23]: 2 µg/mL (≈ 6.53 µM)
MIC [9, 24]: 32 µg/mL (≈ 104 µM)
MIC50 [10, 25]: 1 µg/mL (≈ 3.27 µM)
MIC90 [10, 26]: 32 µg/mL (≈ 104 µM)
MIC [11, 27]: 4 µg/mL (≈ 13.1 µM)

CCC(C)n1ncn(-c2ccc(N3CCN(c4ccc(OCC5COC(Cn6cncn6)(c6ccc(Cl)cc6Cl)O5)cc4)CC3)cc2)c1=O (stereo not shown) [Itraconazole, reference compound]
% percentage of survival after day 3 [1]: 100%
% percentage of survival after day 6 [1]: 100%
PD50 at 8th day [1]: 2.31 mg/kg/os
PD50 at 14th day [1]: >8 mg/kg/os
In vitro antimycotic activity ([12]; Fusarium sp strain 81-256): 2
In vitro antimycotic activity ([12]; Fusarium sp strain 86-3369): 2-16
In vitro antimycotic activity ([12]; Fusarium sp strain 88-2116): 2-8
In vitro antimycotic activity ([12]; Fusarium sp strain 946301): 2-16
MIC [6, 19]: 0.1 µg/mL (≈ 0.142 µM)
MIC50 [7, 20]: 0.06 µg/mL (≈ 0.085 µM)
MIC90 [7, 21]: 0.12 µg/mL (≈ 0.17 µM)
MIC50 [8, 22]: ≤ 0.03 µg/mL
MIC90 [8, 23]: 0.06 µg/mL (≈ 0.085 µM)
MIC50 [10, 25]: ≤ 0.03 µg/mL
MIC90 [10, 26]: 0.1 µg/mL (≈ 0.142 µM)
MIC [13, 28]: 0.03 to 0.12 µg/mL (≈ 0.0425 to 0.17 µM)
In vitro antimycotic activity [14]: ≤0.03

C[C@H]([C@](O)(Cn1cncn1)c1ccc(F)cc1F)S(C)(=O)=O [Genaconazole, (2R,3R) α-(2,4-difluorophenyl)-α-[1-(methylsulfonyl)ethyl]-1H-1,2,4-triazol-1-ethanol, reference compound]
MIC [12]: 64 µg/mL (≈ 193 µM)
In vitro antimycotic activity ([12]; Fusarium sp strain 81-256): 64
MIC [6, 19]: > 64 µg/mL
MIC50 [7, 20]: 2 µg/mL (≈ 6.04 µM)
MIC90 [7, 21]: 32 µg/mL (≈ 96.6 µM)
MIC50 [8, 22]: 0.5 µg/mL (≈ 1.51 µM)
MIC90 [8, 23]: 1 µg/mL (≈ 3.02 µM)
MIC [9, 24]: 32 µg/mL (≈ 96.6 µM)
MIC50 [10, 25]: 8 µg/mL (≈ 24.1 µM)
MIC90 [10, 26]: 16 µg/mL (≈ 48.3 µM)
MIC [11, 27]: 16 µg/mL (≈ 48.3 µM)
MIC [13, 28]: 16 to 32 µg/mL (≈ 48.3 to 96.6 µM)
In vitro antimycotic activity [14]: 32

CC(C)(COC(F)(F)C(F)F)C(O)(Cn1cncn1)c1ccc(Cl)cc1 (racemic) [Compound 3, (±)-1-(1H-1,2,4-triazolyl)-2-hydroxy-2-(4-chlorophenyl)-3,3-dimethyl-4-(1,1,2,2-tetrafluoroethoxy)butane]
% percentage of survival after day 3 [1]: 100%
% percentage of survival after day 6 [1]: 100%
PD50 at 8th day [1]: 0.49 mg/kg/os
PD50 at 14th day [1]: 1.3 mg/kg/os
MIC [15, 29]: 0.5 to 2 µg/mL (≈ 1.26 to 5.05 µM)
IC50 [2, 16]: 0.0625 µg/mL (≈ 0.158 µM)
IC50 [3, 17]: 0.0625 µg/mL (≈ 0.158 µM)
MIC [12]: 16 to 64 µg/mL (≈ 40.4 to 162 µM)
MIC [4, 18]: 1 µg/mL (≈ 2.53 µM)
MIC [5, 30]: > 128 µg/mL
MIC [6, 19]: 0.5 µg/mL (≈ 1.26 µM)
MIC50 [7, 20]: ≤ 0.03 µg/mL
MIC90 [7, 21]: 2 µg/mL (≈ 5.05 µM)
MIC50 [8, 22]: ≤ 0.03 µg/mL
MIC90 [8, 23]: ≤ 0.03 µg/mL
MIC [9, 24]: 0.12 µg/mL (≈ 0.303 µM)
MIC50 [10, 25]: ≤ 0.03 µg/mL
MIC90 [10, 26]: 0.5 µg/mL (≈ 1.26 µM)
MIC [11, 27]: 0.06 µg/mL (≈ 0.152 µM)
MIC [13]: 0.03 to 0.5 µg/mL (≈ 0.0758 to 1.26 µM)

CC(COC(F)(F)C(F)F)C(O)(Cn1cncn1)c1ccc(Cl)cc1Cl (racemic) [Compound 1, (±)-1-(1H-1,2,4-triazolyl)-2-hydroxy-2-(2,4-dichlorophenyl)-3-methyl-4-(1,1,2,2-tetrafluoroethoxy)butane]
% percentage of survival after day 3 [1]: 100%
% percentage of survival after day 6 [1]: 100%
PD50 at 8th day [1]: 0.120 mg/kg/os
PD50 at 14th day [1]: 0.74 mg/kg/os
MIC [15]: 0.12 µg/mL (≈ 0.288 µM)
IC50 ([2]; Candida albicans, 1040, 48 h): 0.0156 µg/mL (≈ 0.0375 µM)
IC50 ([3]; 48 h): 0.004 µg/mL (≈ 0.00961 µM)
MIC [12]: 0.25 µg/mL (≈ 0.601 µM)
In vitro antimycotic activity ([12]; Fusarium sp strain 81-256): 0.25
In vitro antimycotic activity ([12]; Fusarium sp strain 86-3369): 0.5
In vitro antimycotic activity ([12]; Fusarium sp strain 88-2116): 0.5
In vitro antimycotic activity ([12]; Fusarium sp strain 946301): 0.5
MIC [4]: 0.125 µg/mL (≈ 0.3 µM)
MIC [5]: 8 µg/mL (≈ 19.2 µM)
MIC [6]: 0.12 µg/mL (≈ 0.288 µM)
MIC50 [7]: ≤ 0.03 µg/mL
MIC90 [7]: 0.06 µg/mL (≈ 0.144 µM)
MIC50 [8]: ≤ 0.03 µg/mL
MIC90 [8]: ≤ 0.03 µg/mL
MIC ([9]; Trichosporon): ≤ 0.03 µg/mL
MIC50 [10]: ≤ 0.03 µg/mL
MIC90 [10]: ≤ 0.03 µg/mL
MIC [11]: ≤ 0.03 µg/mL
MIC [13]: 0.03 to 0.12 µg/mL (≈ 0.0721 to 0.288 µM)
In vitro antimycotic activity [14]: ≤0.03

CC(C)(COC(F)(F)C(F)F)C(O)(Cn1cncn1)c1ccc(F)cc1F (racemic) [Compound 5]
PD50 at 8th day [1]: 0.50 mg/kg/os
PD50 at 14th day [1]: 1.14 mg/kg/os
MIC [15, 29]: 0.12 µg/mL (≈ 0.302 µM)
IC50 [2, 16]: 0.0156 µg/mL (≈ 0.0393 µM)
IC50 [3, 17]: 0.0156 µg/mL (≈ 0.0393 µM)
MIC [12]: 0.25 µg/mL (≈ 0.629 µM)
MIC [4, 18]: 0.25 µg/mL (≈ 0.629 µM)
MIC [5, 30]: 8 µg/mL (≈ 20.1 µM)
MIC [6, 19]: 0.12 µg/mL (≈ 0.302 µM)
MIC50 [7, 20]: ≤ 0.03 µg/mL
MIC90 [7, 21]: 0.5 µg/mL (≈ 1.26 µM)
MIC50 [8, 22]: ≤ 0.03 µg/mL
MIC90 [8, 23]: ≤ 0.03 µg/mL
MIC [9, 24]: ≤ 0.03 µg/mL
MIC50 [10, 25]: ≤ 0.03 µg/mL
MIC90 [10, 26]: ≤ 0.03 µg/mL
MIC [11, 27]: 0.06 µg/mL (≈ 0.151 µM)
MIC50 [13]: ≤ 0.03 µg/mL
MIC90 [13]: 0.12 µg/mL (≈ 0.302 µM)
